Like-named read-outs stand apart in the source and are kept apart here.
Legend:
[1] = tested on: P-4E-BP1 (T37/46); experiment: Cell based AlphaLISA assay, inhibition of P-4E-BP1 (T37/46) (mTORC1 substrate phosphorylation) in MDA-MB-468 cells; details: Homo sapiens, AlphaLISA, two to four hours at 37° C., read-out: pIC50 for Inhibition of mTORC1 and mTORC2 Substrate Phosphorylation, P-4E-BP1-(T37/46) (converted)
Procedure, shortened: (§1)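 Cells are exposed to inhibitor, then the assay buffer is taken off and kit lysis buffer added. Lysates undergo AlphaLISA SureFire Ultra detection in duplicate.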

[2] = tested on: P-P70S6K (T389); experiment: Cell based AlphaLISA assay, inhibition of P-P70S6K (T389) (mTORC1 substrate phosphorylation) in MDA-MB-468 cells; details: Homo sapiens, 4 h, AlphaLISA, two to four hours at 37° C., read-out: pIC50 for Inhibition of mTORC1 and mTORC2 Substrate Phosphorylation, P-P70S6K-(T389) (converted)
Procedure, shortened: as §1

[3] = tested on: P-Akt (S473); experiment: Cell based AlphaLISA assay, inhibition of P-Akt (S473) (mTORC2 substrate phosphorylation) in MDA-MB-468 cells; details: Homo sapiens, AlphaLISA, two to four hours at 37° C., read-out: pIC50 for Inhibition of mTORC1 and mTORC2 Substrate Phosphorylation, p-AKT 1/2/3 -(S473) (converted)
Procedure, shortened: as §1

SMILES	IC50 ([1]; 4 h) [nM]	IC50 [2] [nM]	IC50 ([3]; 4 h) [nM]	IC50 ([1]; MDA-MB-468, 4 h) [nM]	IC50 ([3]; MDA-MB-468, 4 h) [nM]
CO[C@H]1C[C@@H]2CC[C@@H](C)[C@@](O)(O2)C(=O)C(=O)N2CCCC[C@H]2C(=O)O[C@H]([C@H](C)C[C@@H]2CC[C@@H](OCCCCc3cn(CCOCCOCCOCCOCCOCCOCCOCCOCCC(=O)NCCCCn4nc(-c5cc6cc(O)ccc6[nH]5)c5c(N)ncnc54)nn3)[C@H](OC)C2)CC(=O)[C@H](C)/C=C(\C)[C@@H](O)[C@@H](OC)C(=O)[C@H](C)C[C@H](C)/C=C/C=C/C=C/1C [Example 42]	< 3.16	< 1	3.16 to 31.6	–	–
COC(=O)N[C@H]1C[C@@H]2CC[C@@H](C)[C@@](O)(O2)C(=O)C(=O)N2CCCC[C@H]2C(=O)O[C@H]([C@H](C)C[C@@H]2CC[C@@H](OCCCCc3cn(CCOCCOCCOCCOCCOCCOCCOCCOCCC(=O)N4CCN(c5ccc(-n6c(=O)n(C)c7cnc8ccc(-c9ccc(OC)nc9)cc8c76)cc5C(F)(F)F)CC4)nn3)[C@H](OC)C2)CC(=O)[C@H](C)/C=C(\C)[C@@H](O)[C@@H](OC)C(=O)[C@H](C)CC(C)/C=C/C=C/C=C/1C (stereo partly drawn) [Example 72]	–	< 1	–	< 3.16	< 3.16
CO[C@H]1C[C@@H]2CC[C@@H](C)[C@@](O)(O2)C(=O)C(=O)N2CCCC[C@H]2C(=O)O[C@H]([C@H](C)C[C@@H]2CC[C@H](n3nncc3-c3cccc(-c4cn(CCOCCOCCOCCOCCOCCOCCOCCOCCC(=O)NCCCCn5nc(-c6ccc7oc(N)nc7c6)c6c(N)ncnc65)nn4)c3)[C@H](OC)C2)CC(=O)[C@H](C)/C=C(\C)[C@@H](O)[C@@H](OC)C(=O)[C@H](C)C[C@H](C)/C=C/C=C/C=C/1C [Example 62]	–	> 1000	–	> 1000	> 1000
CO[C@H]1C[C@@H]2CC[C@@H](C)[C@@](O)(O2)C(=O)C(=O)N2CCCC[C@H]2C(=O)O[C@H]([C@H](C)C[C@@H]2CC[C@H](n3cc(COC(=O)NCCOCCOCCOCCC(=O)NCCOCCOCCC(=O)NCCCCn4nc(-c5ccc6oc(N)nc6c5)c5c(N)ncnc54)nn3)[C@H](OC)C2)CC(=O)[C@H](C)/C=C(\C)[C@@H](O)[C@@H](OC)C(=O)[C@H](C)C[C@H](C)/C=C/C=C/C=C/1C [Example 120]	–	1 to 10	–	3.16 to 31.6	31.6 to 1000
COC(=O)N[C@H]1C[C@@H]2CC[C@@H](C)[C@@](O)(O2)C(=O)C(=O)N2CCCC[C@H]2C(=O)O[C@H]([C@H](C)C[C@@H]2CC[C@@H](OCCCCc3cn(CCOCCOCCOCCOCCOCCOCCC(=O)N4CCN(c5ccc(-n6c(=O)n(C)c7cnc8ccc(-c9ccc(OC)nc9)cc8c76)cc5C(F)(F)F)CC4)nn3)[C@H](OC)C2)CC(=O)[C@H](C)/C=C(\C)[C@@H](O)[C@@H](OC)C(=O)[C@H](C)C[C@H](C)/C=C/C=C/C=C/1C [Example 73]	–	< 1	–	< 3.16	< 3.16
CO[C@H]1C[C@@H]2CC[C@@H](C)[C@@](O)(O2)C(=O)C(=O)N2CCCC[C@H]2C(=O)O[C@H]([C@H](C)C[C@@H]2CC[C@H](n3cc(CCCC(=O)NCCOCCOCCOCCC(=O)NCCOCCOCCOCCC(=O)NCCCCn4nc(-c5cc6cc(O)ccc6[nH]5)c5c(N)ncnc54)nn3)[C@H](OC)C2)CC(=O)[C@H](C)/C=C(\C)[C@@H](O)[C@@H](OC)C(=O)[C@H](C)C[C@H](C)/C=C/C=C/C=C/1C [Example 131]	–	1 to 10	–	31.6 to 1000	31.6 to 1000
CO[C@H]1C[C@@H]2CC[C@@H](C)[C@@](O)(O2)C(=O)C(=O)N2CCCC[C@H]2C(=O)O[C@H]([C@H](C)C[C@@H]2CC[C@H](n3cc(CCCC(=O)NCCOCCOCCOCCC(=O)NCCOCCOCCOCCC(=O)NCCCCn4nc(-c5cc6cc(O)ccc6[nH]5)c5c(N)ncnc54)nn3)[C@H](OC)C2)C[C@@H](OC)[C@H](C)/C=C(\C)[C@@H](O)[C@@H](OC)C(=O)[C@H](C)C[C@H](C)/C=C/C=C/C=C/1C [Example 179]	–	1 to 10	–	31.6 to 1000	> 1000
CO[C@@H]1C[C@H](C[C@@H](C)[C@@H]2CC(=O)[C@H](C)/C=C(\C)[C@@H](O)[C@@H](OC)C(=O)[C@H](C)C[C@H](C)/C=C/C=C/C=C(\C)[C@@H](c3ccco3)C[C@@H]3CC[C@@H](C)[C@@](O)(O3)C(=O)C(=O)N3CCCC[C@H]3C(=O)O2)CC[C@H]1OCCCCc1cn(CCOCCOCCOCCOCCOCCOCCOCCOCCC(=O)NCCCCn2nc(-c3ccc4oc(N)nc4c3)c3c(N)ncnc32)nn1 [Example 18]	–	< 1	–	< 3.16	< 3.16
CO[C@H]1C[C@@H]2CC[C@@H](C)[C@@](O)(O2)C(=O)C(=O)N2CCCC[C@H]2C(=O)O[C@H]([C@H](C)C[C@@H]2CC[C@@H](O)[C@H](OC)C2)C[C@@H](OC)[C@H](C)/C=C(\C)[C@@H](O)[C@@H](OC)C(=NOCc2cn(CCOCCOCCOCCOCCC(=O)NCCCCn3nc(-c4ccc5oc(N)nc5c4)c4c(N)ncnc43)nn2)[C@H](C)C[C@H](C)/C=C/C=C/C=C/1C [Example 16]	–	> 1000	–	> 1000	> 1000
CO[C@H]1C[C@@H]2CC[C@@H](C)[C@@](O)(O2)C(=O)C(=O)N2CCCC[C@H]2C(=O)O[C@H]([C@H](C)C[C@@H]2CC[C@H](n3nncc3-c3cccc(-c4cnc(N5CCN(S(=O)(=O)CCc6cn(CCOCCOCCOCCOCC(=O)NCCCCn7nc(-c8ccc9oc(N)nc9c8)c8c(N)ncnc87)nn6)CC5)nc4)c3)[C@H](OC)C2)CC(=O)[C@H](C)/C=C(\C)[C@@H](O)[C@@H](OC)C(=O)[C@H](C)C[C@H](C)/C=C/C=C/C=C/1C [Example 37]	–	< 1	–	< 3.16	3.16 to 31.6
CO[C@H]1C[C@@H]2CC[C@@H](C)[C@@](O)(O2)C(=O)C(=O)N2CCCC[C@H]2C(=O)O[C@H]([C@H](C)C[C@@H]2CC[C@H](n3cc(-c4cnc(N5CCN(c6ncc(C(=O)NCCOCCOCCOCCC(=O)NCCCCn7nc(-c8ccc9oc(N)nc9c8)c8c(N)ncnc87)cn6)CC5)nc4)nn3)[C@H](OC)C2)CC(=O)[C@H](C)/C=C(\C)[C@@H](O)[C@@H](OC)C(=O)[C@H](C)C[C@H](C)/C=C/C=C/C=C/1C [Example 113]	–	< 1	–	< 3.16	3.16 to 31.6
CO[C@H]1C[C@@H]2CC[C@@H](C)[C@@](O)(O2)C(=O)C(=O)N2CCCC[C@H]2C(=O)O[C@H]([C@H](C)C[C@@H]2CC[C@H](n3cc(-c4cnc(N5CCN(c6ncc(C(=O)NCCOCCC(=O)NCCCCn7nc(-c8cc9cc(O)ccc9[nH]8)c8c(N)ncnc87)cn6)CC5)nc4)nn3)[C@H](OC)C2)CC(=O)[C@H](C)/C=C(\C)[C@@H](O)[C@@H](OC)C(=O)[C@H](C)C[C@H](C)/C=C/C=C/C=C/1C [Example 110]	–	< 1	–	31.6 to 1000	> 1000
CO[C@H]1C[C@@H]2CC[C@@H](C)[C@@](O)(O2)C(=O)C(=O)N2CCCC[C@H]2C(=O)O[C@H]([C@H](C)C[C@@H]2CC[C@H](n3cc(CCCC(=O)NCCOCCOCCOCCC(=O)NCCOCCOCCC(=O)NCCCCn4nc(-c5ccc6oc(N)nc6c5)c5c(N)ncnc54)nn3)[C@H](OC)C2)C/C(=N/OC(C)(C)C)[C@H](C)/C=C(\C)[C@@H](O)[C@@H](OC)C(=O)[C@H](C)C[C@H](C)/C=C/C=C/C=C/1C [Example 176]	–	10 to 1000	–	> 1000	> 1000
CCO[C@@H]1C[C@@H]([C@H](C)C[C@@H]2CC[C@H](n3cc(COC(=O)NCCOCCOCCOCCC(=O)NCCOCCOCCC(=O)NCCCCn4nc(-c5cc6cc(O)ccc6[nH]5)c5c(N)ncnc54)nn3)[C@H](OC)C2)OC(=O)[C@@H]2CCCCN2C(=O)C(=O)[C@]2(O)O[C@@H](CC[C@H]2C)C[C@H](OC)/C(C)=C/C=C/C=C/[C@@H](C)C[C@@H](C)C(=O)[C@H](OC)[C@H](O)/C(C)=C/[C@H]1C [Example 148]	–	10 to 1000	–	> 1000	> 1000
COC(=O)NC1C[C@@H]2CC[C@@H](C)[C@@](O)(O2)C(=O)C(=O)N2CCCC[C@H]2C(=O)O[C@H]([C@H](C)C[C@@H]2CC[C@@H](OCCCCc3cn(CCOCCOCCOCCOCCOCCOCCC(=O)NCCCCn4nc(-c5ccc6oc(N)nc6c5)c5c(N)ncnc54)nn3)[C@H](OC)C2)CC(=O)[C@H](C)/C=C(\C)[C@@H](O)[C@@H](OC)C(=O)[C@H](C)C[C@H](C)/C=C/C=C/C=C/1C (stereo partly drawn) [Example 39]	–	1 to 10	–	31.6 to 1000	31.6 to 1000
CO[C@H]1C[C@@H]2CC[C@@H](C)[C@@](O)(O2)C(=O)C(=O)N2CCCC[C@H]2C(=O)O[C@H]([C@H](C)C[C@@H]2CC[C@@H](OCCCCc3cn(CCOCCOCCOCCOCCNC(=O)CCC(=O)NCCCCn4nc(-c5ccc6oc(N)nc6c5)c5c(N)ncnc54)nn3)[C@H](OC)C2)CC(=O)[C@H](C)/C=C(\C)[C@@H](O)[C@@H](OC)C(=O)[C@H](C)C[C@H](C)/C=C/C=C/C=C/1C [Example 99]	–	< 1	–	3.16 to 31.6	3.16 to 31.6
